The solubility (kinetic) is solubility judged after dilution from a stock solution rather than from solid.

This note sets out measurements from PubChem BioAssay AID1996.

Converted amounts (≈) assume the structure as drawn.

For the data set the following is noted: buffer; pH 7.4; 200.0 µM.
With `N#C/C(=C\C=C\c1ccccc1[N+](=O)[O-])C(=O)NCc1ccccc1`, the solubility (kinetic) was determined as 3.7 µg/mL (≈ 11.1 µM). With `CSc1ccc(Cl)c(C(=O)N2CCN(CC(=O)N3CCCC3)CC2)c1` the figure was over 57.3 µg/mL. As for `O=C(O)c1cncc(SCc2ccccc2)n1`, the kinetic solubility was found to be 34.5 µg/mL (≈ 140 µM). With `COCc1cc(NCc2ccc(Cl)cc2)nc(C)n1` the figure was 34.7 µg/mL (≈ 125 µM); with `Cc1ccc(Cl)cc1NC(=O)C1CCCN(S(C)(=O)=O)C1` (centres undefined), 5.8 µg/mL (≈ 17.5 µM); with `OC(CN1CCC(Cc2ccccc2)CC1)C(F)(F)F` (centres undefined), over 43.1 µg/mL. With `CSc1ccccc1NC(=O)c1ccccc1` the figure was 28.8 µg/mL (≈ 118 µM); with `Cc1cc(NCc2cccnc2)nc(N)n1`, over 32.3 µg/mL; with `COc1ccccc1C(=O)COC(=O)c1ccc(N(C)C)cc1`, 1.1 µg/mL (≈ 3.51 µM).

Consider `CCN(CC)S(=O)(=O)c1ccc(O)c(C(=O)OCC(=O)NC23CC4CC(CC(C4)C2)C3)c1`, for which the solubility (kinetic) is 25.5 µg/mL (≈ 54.9 µM). This solubility kinetic is about 23-fold higher than that of the compound before. For the compound `CC1(NS(=O)(=O)c2ccc(Cl)s2)CCS(=O)(=O)C1` (centres undefined), the kinetic solubility is over 49.5 µg/mL. For the compound `CNC(=O)NC(O)C(Cl)(Cl)Cl` (centres undefined), the solubility (kinetic) amounted to 33.1 µg/mL (≈ 149 µM). With `Cn1c(Br)nc2c1c(=O)n(Cc1ccccc1)c(=O)n2C` the figure was 46.1 µg/mL (≈ 132 µM); with `CC(=O)Nc1ccc(S(=O)(=O)Nc2nccc(C)n2)cc1`, over 46 µg/mL. With `O=c1[nH]c(N2CCCCCC2)nc2ncn(Cc3ccccc3)c12` the figure was 13 µg/mL (≈ 40.2 µM).

For the compound `Cc1ccc(C(=O)Nc2cccc(NC(=O)c3cccs3)c2)c(C)c1`, the kinetic solubility worked out at 0.6 µg/mL (≈ 1.71 µM). With `Cc1[nH]c2ccccc2c1CN1CCN(c2ccccn2)CC1` the figure was 44.4 µg/mL (≈ 145 µM); with `NC(=O)c1ccc(/C=N/O)[n+](Cc2ccccc2)c1.[Br-]`, 33.9 µg/mL; with `O=C(Nc1ccc2c(c1)OCO2)c1cc(Cl)ccn1`, 6.1 µg/mL (≈ 22 µM). With `N/C(=N\OC(=O)CCN1C(=O)c2ccccc2C1=O)c1ccccn1` the figure was 49.6 µg/mL (≈ 147 µM); with `O=C(NC1CCOc2ccccc21)C1CCCC1` (centres undefined), over 36.8 µg/mL; with `COc1ccc(NC(=O)CCn2cccc2)c(OC)c1`, 36.1 µg/mL (≈ 132 µM).

Compound `O=C1CCN(Cc2nc(-c3ccc(Cl)cc3)no2)CCN1` returned a solubility (kinetic) of over 46 µg/mL. With `CC(C)C1CC(CCN)(c2ccccc2)CCO1.O=C(O)C(=O)O` (centres undefined) the figure was over 50.6 µg/mL. Next, `Cc1ccc(NC(=O)N2CCCC(c3ccccc3)C2)cc1` (centres undefined): 1.6 µg/mL (≈ 5.43 µM). With `OC(COc1ccccc1)CN1CCCCCC1` (centres undefined) the figure was over 37.4 µg/mL. Compound `COc1ccccc1C(=O)NC(=O)COC(=O)CNC(=O)c1ccccc1F` gave a kinetic solubility of over 58.3 µg/mL.

With `O=C1CSC(=Nc2ccc(F)cc2)N1`, the solubility (kinetic) is over 31.5 µg/mL.

`Cc1cccn2c(=O)c(C=O)c(N3CCN(C)CC3)nc12` gave a solubility (kinetic) of over 42.9 µg/mL. The compound `Cc1cc(NC(=O)c2ccc(C)o2)no1` showed a kinetic solubility of over 30.9 µg/mL.

The compound `Cc1ccc(C(=O)N2CCN(C(=O)c3ccc(C)cc3)C2)cc1` came in with a kinetic solubility of over 46.3 µg/mL. With `CCOc1ccc(NC(=O)CN(C)S(=O)(=O)c2cnc[nH]2)cc1` the figure was over 50.8 µg/mL; with `O=C(O)CC1(CC(=O)N2CCC(C(=O)O)CC2)CCCC1`, 40.6 µg/mL (≈ 137 µM); with `CN(C)c1ccc([N+](=O)[O-])cc1C(=O)NCC(c1ccco1)N(C)C` (centres undefined), 47.7 µg/mL (≈ 138 µM). Consider `COc1cc(OC)cc(C(=O)NC(C)CCc2ccccc2)c1` (centres undefined), for which the kinetic solubility was 34.2 µg/mL (≈ 109 µM). With `Cc1cc2nc3c(nc2cc1C)C(O)=C3O` the figure was 27.6 µg/mL (≈ 129 µM); with `O=C(Nc1nccs1)C(c1ccccc1)N1CCCC1` (centres undefined), over 43.1 µg/mL. Next, `O=C(CSc1nccc(-c2cccs2)n1)Nc1ccc(Cl)cc1`: 1.4 µg/mL (≈ 3.87 µM). The compound `CCc1ccc(Oc2ncnc(N)c2[N+](=O)[O-])cc1` registered a kinetic solubility of 5 µg/mL (≈ 19.2 µM). Next, `CCCCNC(=O)C(=O)NCc1ccncc1`: 32.8 µg/mL (≈ 139 µM); `CC(=O)Nc1c(-c2ccccc2Cl)c(=O)c2ccccc2n1C`: over 49 µg/mL; `Cc1c(Cl)cn2c(=O)cc(CN3CCN(c4ccc(F)cc4)CC3)nc2c1Cl`: 5 µg/mL (≈ 11.9 µM). With `CC1CC(C)CN(C(=O)COc2ccc([N+](=O)[O-])cc2Cl)C1` (centres undefined) the figure was 11 µg/mL (≈ 33.7 µM); with `CCOc1ccc(N2CC(C(=O)NCCc3ccc(F)cc3)CC2=O)cc1` (centres undefined), 30.8 µg/mL (≈ 83.1 µM); with `COc1cccc(C(=O)Nc2cccc3c2ccc2cccn23)c1`, 1.3 µg/mL (≈ 4.11 µM).

For the compound `CC1(C)Oc2ccc(C(=O)Nc3ccccc3)cc2N(CC#N)C1=O`, the kinetic solubility is over 50.3 µg/mL.

With `Cc1cc(NC(=O)COC(=O)CC2CCCC2)c([N+](=O)[O-])cc1C`, the kinetic solubility is 3 µg/mL (≈ 8.97 µM). Next, `CCCNC(=O)c1cc2cc([N+](=O)[O-])ccc2s1`: 1.4 µg/mL (≈ 5.3 µM); `Cl.O=C(COc1ccc(Br)cc1)NCCN1CCCC1`: 51.8 µg/mL; `COCc1c(C(=O)NCCc2ccc(OC(F)F)cc2)oc2ccccc12`: 13.5 µg/mL (≈ 36 µM). With `CCc1ccccc1Nc1ncnc2ccccc12.Cl` the figure was over 42.9 µg/mL; with `Cc1ccc(NC(=O)C2=C(C(=O)O)CCCC2)cc1Br`, 33.3 µg/mL (≈ 98.5 µM).

With `NS(=O)(=O)c1ccc(CCNC(=O)CN2CCCCC2)cc1`, the kinetic solubility was found to be 45.4 µg/mL (≈ 140 µM). With `Cc1ccc(Nc2nnc(SCC(=O)NCC3CCCO3)s2)cc1C` (centres undefined) the figure was over 56.8 µg/mL. As to `Cc1ccc(OCC(=O)NCCCNC(=O)c2ccccn2)cc1C`, the solubility (kinetic) stood at 45.4 µg/mL (≈ 133 µM). Next, `COC(=O)CNC(=S)NC(=O)c1ccc(C(C)(C)C)cc1`: 25.4 µg/mL (≈ 82.4 µM); `CN(C(=O)COC(=O)CNC(=O)c1sc2ccccc2c1Cl)C1CCS(=O)(=O)C1` (centres undefined): over 68.8 µg/mL. As for `CC(=O)Nc1ccc(S(=O)(=O)Nc2ccc3ccccc3n2)cc1`, the kinetic solubility was found to be 14.2 µg/mL (≈ 41.6 µM). Next, `CC(C)(C)NC(=O)CSc1nc2cc(S(=O)(=O)N3CCCCC3)ccc2o1`: 3.7 µg/mL (≈ 8.99 µM); `CSc1nc(C)c(C(=O)C[n+]2ccccc2C)cc1C#N.[Br-]`: over 56.7 µg/mL.

Turning to `Cc1sc2ncnc(SCC(=O)N3CCCC(C(N)=O)C3)c2c1C` (centres undefined), the solubility (kinetic) was 53.6 µg/mL (≈ 147 µM). Next, `CN(C(=O)/C=C/c1ccc2c(c1)OCO2)c1ccccc1`: 34.7 µg/mL (≈ 123 µM); `O=C(Nc1ccc(OC(F)(F)F)cc1)c1ccc2nc[nH]c2c1`: 14.9 µg/mL (≈ 46.4 µM); `O=C1CN(C(=O)COC(=O)c2ccc(C(F)(F)F)cc2)c2ccccc2N1`: 2.4 µg/mL (≈ 6.34 µM).

For `CN(C)C=Nc1nonc1-c1ccc(Cl)cc1`, the solubility (kinetic) came to 1.4 µg/mL (≈ 5.58 µM). Next, `Cc1cccc(C(=O)OCC(=O)N(C)c2ccccc2)c1C`: over 44.6 µg/mL; `COc1ccc(NC(=O)COC(=O)CNC(=O)C2CCCCC2)cc1OC`: over 56.8 µg/mL; `O=C(Nc1ccccc1[N+](=O)[O-])C1COc2ccccc2O1` (centres undefined): 1 µg/mL (≈ 3.33 µM). With `N#CNC(=Nc1ccc(Cl)cc1)Oc1ccccc1` the figure was 1.9 µg/mL (≈ 6.99 µM); with `Cc1c(C(=O)Nc2cccnc2)oc2ccc(Br)cc12`, under 0.4 µg/mL; with `Cc1ccc(-c2nonc2NC(=O)c2ccco2)cc1`, over 40.4 µg/mL. Next, `O=C(Oc1ccc(Br)cc1)c1cccnc1`: 34.3 µg/mL (≈ 123 µM). `CCC(=O)Nc1ccc(/C=C(\C(C)=O)C(=O)c2ccccc2)cc1` registered a kinetic solubility of over 48.2 µg/mL.

As to `Cc1cc(F)ccc1NCc1ccc([N+](=O)[O-])cc1`, the solubility (kinetic) was found to be 0.3 µg/mL (≈ 1.15 µM). With `O=C(COc1ncnc2ccccc12)Nc1cccc([N+](=O)[O-])c1` the figure was 15.1 µg/mL (≈ 46.6 µM).

In the case of `O=C(O)C1C2CCC(O2)C1C(=O)Nc1cccc(Br)c1` (centres undefined), the kinetic solubility was determined as 50.7 µg/mL (≈ 149 µM). Next, `Cc1ccccc1OCC(=O)NCCNC(=O)c1ccncc1`: over 47 µg/mL; `Cc1ccc(S(=O)(=O)NC(CC(=O)O)c2ccc(F)cc2)cc1` (centres undefined): 34.8 µg/mL (≈ 103 µM). With `CC(=O)C1=C(C)N2CCN=C2S1` the figure was over 27.3 µg/mL; with `O=C(NCc1ccccc1Cl)C1CC(=O)N(Cc2ccccc2)C1` (centres undefined), over 51.4 µg/mL. Next, `COc1ccccc1C(=O)OCC(=O)Nc1cccc(S(=O)(=O)NC2=NCCCCC2)c1`: over 68.9 µg/mL; `CN(Cc1ccccc1)C(=O)COC(=O)/C=C/c1ccco1`: over 44.9 µg/mL; `CC1CCN(CC(=O)Nc2ccc3c(c2)OCO3)CC1`: over 41.5 µg/mL. `N#Cc1nc(-c2ccc(Cl)cc2)oc1NCC1CCCO1` (centres undefined) registered a solubility (kinetic) of 2.5 µg/mL (≈ 8.23 µM). Next, `CCOc1ccc(S(=O)(=O)N2CCNC(=O)C2)cc1`: over 42.6 µg/mL. With `c1ccc(-c2nnc(-c3ccccn3)c(-c3ccccn3)n2)nc1` the figure was over 46.8 µg/mL; with `O=[N+]([O-])c1ccc(NCc2ccccc2N2CCC(CO)CC2)nc1`, 12.4 µg/mL (≈ 36.2 µM). Next, `O=C(Nc1ccccc1Cl)c1ccc2ccccc2c1`: under 0.6 µg/mL; `CC(C)(C)C(=O)Nc1ccc(/C=C/C(=O)c2ccco2)cc1`: 28.9 µg/mL (≈ 97.2 µM). `CCc1nc2ccccc2n1CCc1ccccc1.Cl` came in with a kinetic solubility of 37.6 µg/mL.

`Cc1cc(C(=O)Nc2ccccc2[N+](=O)[O-])cs1` yielded a kinetic solubility of 1.6 µg/mL (≈ 6.1 µM). Against the preceding compound, the solubility kinetic is about 24-fold lower. The compound `Nc1cc(N2CCCC2)ccc1[N+](=O)[O-]` showed a solubility (kinetic) of 2.8 µg/mL (≈ 13.5 µM).

As to `O=C(c1ccccc1NS(=O)(=O)c1ccc(F)cc1F)N1CCCCC1`, the kinetic solubility was over 57.1 µg/mL. `COc1ccc(Cl)cc1NC(=O)C1CCN(S(C)(=O)=O)CC1` registered a solubility (kinetic) of over 52 µg/mL. Next, `O=C(CCN1CCN(c2ccccc2)CC1)Nc1ccccc1`: 40.9 µg/mL (≈ 132 µM); `Cc1ccsc1/C=N/Nc1ncnc2nc[nH]c12`: over 38.7 µg/mL; `COc1ccc(C(=O)/C=C/Nc2ccc(S(N)(=O)=O)cc2)cc1OC`: 7.9 µg/mL (≈ 21.8 µM). For `Cc1ccc(CSc2nc(N)cc(=O)[nH]2)cc1`, the solubility (kinetic) came to 13.1 µg/mL (≈ 53 µM). With `CC(=O)Nc1nc(CC(C)C)cc(-c2ccccc2)c1C#N` the figure was over 44 µg/mL; with `COc1ccc(NC(C)=O)cc1NC(=O)c1ccc(C#N)cc1`, over 46.4 µg/mL. Next, `CCC[N+](CC#CCO)(CC#Cc1ccccc1)CCC.[Br-]`: over 54.6 µg/mL; `COc1ccc(C(C)(C)C)cc1NC(=O)COC(=O)C(C)C`: 33.1 µg/mL (≈ 108 µM). Next, `CC(=O)Nc1ccc(NCc2ccc(C)s2)cc1`: over 39.1 µg/mL; `CN(Cc1ccccc1F)C(=O)c1sccc1-c1ccccc1`: 14 µg/mL (≈ 43 µM).
